Assay results from US6355799B1, “Substituted benzene compounds, process for their preparation, and herbicidal and defoliant compositions containing them” (ISK Americas Incorporated, priority 1997, dated 2002).

What was measured:
Format in all cases: in vivo
[1] = test system: upland rice (Oryza sp., var. Tebonnet, RICE); experiment: Pre-emerge test, crop safety; settings: rating scale 0-100, 14 days after application
Outline: (§1)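 Compounds in acetone were track-sprayed at 15-1000 g ai/ha (187 l/ha) on sandy loam pots: pre-emerge one day after seeding, post-emerge at 2-3 leaf stage with 0.25% v/v non-ionic surfactant. Phytotoxicity was rated 14 days later on a 0 (no damage) to 100 (complete death) scale.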

[2] = test system: field corn (Zea mays L., var. Dekalb 535, CORN); experiment: Pre-emerge test, crop safety; settings: rating scale 0-100, 14 days after application
Outline: as §1

[3] = test system: common ragweed (Ambrosia artemisizfolia L., AMBEL); experiment: Post-emerge test, greenhouse herbicide activity screening; settings: rating scale 0-100 (0 no damage, 100 complete death), 14 days after application
Outline: (§2)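 Applied at 15–1000 g ai/ha from acetone in 187 l/ha spray volume. Post-emergence applications included 0.25% v/v non-ionic surfactant and reached plants sown 8–21 days before. Pre-emergence applications were incorporated by surface watering. Efficacy or crop damage was rated on a 0–100 scale after 14 days.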

[4] = test system: redroot pigweed (Amaranthus retroflexus, AMARE); experiment: as above; settings: rating scale 0-100 (0 no damage, 100 complete death), 14 days after application
Outline: as §2

[5] = test system: sicklepod (Cassia obtusifolia, CASOB); experiment: as above; settings: rating scale 0-100 (0 no damage, 100 complete death), 14 days after application
Outline: as §2

[6] = test system: large crabgrass (Digitaria sanguinalis, DIGSA); experiment: as above; settings: rating scale 0-100 (0 no damage, 100 complete death), 14 days after application
Outline: as §2

[7] = test system: barnyardgrass (Echinochloa crus-galli, ECHCG); experiment: as above; settings: rating scale 0-100 (0 no damage, 100 complete death), 14 days after application
Outline: as §2

[8] = test system: lambsquarters (Chenopodium album, CHEAL); experiment: as above; settings: rating scale 0-100 (0 no damage, 100 complete death), 14 days after application
Outline: as §2

[9] = test system: ivyleaf morningglory (Ipomoea hederacea, IPOHE); experiment: as above; settings: rating scale 0-100 (0 no damage, 100 complete death), 14 days after application
Outline: as §2

[10] = test system: velvetleaf (Abutilon theophrasti, ABUTH); experiment: as above; settings: rating scale 0-100 (0 no damage, 100 complete death), 14 days after application
Outline: as §2

[11] = test system: green foxtail (Setaria viridis, SETVI); experiment: as above; settings: rating scale 0-100 (0 no damage, 100 complete death), 14 days after application
Outline: as §2

[12] = test system: johnsongrass (Sorghum halepense, SORHA); experiment: as above; settings: rating scale 0-100 (0 no damage, 100 complete death), 14 days after application
Outline: as §2

[13] = test system: upland rice (Oryza sp., var. Tebonnet, RICE); experiment: Post-emerge test, crop safety; settings: rating scale 0-100 (0 no damage, 100 complete death), 14 days after application
Outline: (§3)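 Compounds in acetone were track-sprayed at 187 l/ha, 15–1000 g ai/ha, onto sandy loam pots. Pre-emerge seeds were sown one day before spraying, with surface watering afterwards. Post-emerge plants were at the 2–3 leaf stage and sprayed with 0.25% v/v non-ionic surfactant. Injury was rated 0–100 at 14 days.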

[14] = test system: field corn (Zea mays L., var. Dekalb 535, CORN); experiment: Post-emerge test, crop safety; settings: rating scale 0-100 (0 no damage, 100 complete death), 14 days after application
Outline: as §3

[15] = test system: redroot pigweed (Amaranthus retroflexus, AMARE); experiment: Pre-emerge test, greenhouse herbicide activity screening; settings: rating scale 0-100, 14 days after application
Outline: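 Plants grown in 10 cm pots of sandy loam mix received acetone-dissolved compounds through a moving flat-fan nozzle. Doses ranged from 15 to 1000 g ai/ha. Pre-emerge pots were seeded one day earlier, post-emerge pots 8–21 days earlier. Fourteen days on, each pot was graded 0–100 for damage.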

[16] = test system: sicklepod (Cassia obtusifolia, CASOB); experiment: as above; settings: rating scale 0-100, 14 days after application
Outline: as §3

[17] = test system: large crabgrass (Digitaria sanguinalis, DIGSA); experiment: as above; settings: rating scale 0-100, 14 days after application
Outline: as §3

[18] = test system: barnyardgrass (Echinochloa crus-galli, ECHCG); experiment: as above; settings: rating scale 0-100, 14 days after application
Outline: as §3

[19] = test system: lambsquarters (Chenopodium album, CHEAL); experiment: as above; settings: rating scale 0-100, 14 days after application
Outline: as §3

[20] = test system: ivyleaf morningglory (Ipomoea hederacea, IPOHE); experiment: as above; settings: rating scale 0-100, 14 days after application
Outline: as §3

[21] = test system: velvetleaf (Abutilon theophrasti, ABUTH); experiment: as above; settings: rating scale 0-100, 14 days after application
Outline: as §3

[22] = test system: green foxtail (Setaria viridis, SETVI); experiment: as above; settings: rating scale 0-100, 14 days after application
Outline: as §3

[23] = test system: johnsongrass (Sorghum halepense, SORHA); experiment: as above; settings: rating scale 0-100, 14 days after application
Outline: as §3

For `COc1c(Cl)cc(F)c(-n2c(=O)cc(C(F)(F)F)n(C)c2=O)c1CC(C)(Cl)C(=O)OC(C)C` (stereo not shown) [14-39], the “Pre-emerge phytotoxicity rating, crop damage RICE” value ([1]; 63 g ai/ha) was 0, the “Pre-emerge phytotoxicity rating, crop damage RICE” value ([1]; 250 g ai/ha) was 80 and the “Pre-emerge phytotoxicity rating, crop damage CORN” value ([2]; 63 g ai/ha) was 0. For the same molecule, the “Pre-emerge phytotoxicity rating, crop damage CORN” value ([2]; 250 g ai/ha) was 0, the “Post-emerge Herbicidal Activity, phytotoxicity rating AMBEL” value ([3]; Rate 63 g ai/ha) was 50 and the “Post-emerge Herbicidal Activity, phytotoxicity rating AMBEL” value ([3]; Rate 250 g ai/ha) was 50. The “Post-emerge Herbicidal Activity, phytotoxicity rating AMARE” value ([4]; Rate 63 g ai/ha) was 100, the “Post-emerge Herbicidal Activity, phytotoxicity rating AMARE” value ([4]; Rate 250 g ai/ha) was 100 and the “Post-emerge Herbicidal Activity, phytotoxicity rating CASOB” value ([5]; Rate 63 g ai/ha) was 60. For the same molecule, the “Post-emerge Herbicidal Activity, phytotoxicity rating CASOB” value ([5]; Rate 250 g ai/ha) was 100, the “Post-emerge Herbicidal Activity, phytotoxicity rating DIGSA” value ([6]; Rate 63 g ai/ha) was 60 and the “Post-emerge Herbicidal Activity, phytotoxicity rating DIGSA” value ([6]; Rate 250 g ai/ha) was 100. For the same molecule, the “Post-emerge Herbicidal Activity, phytotoxicity rating ECHCG” value ([7]; Rate 63 g ai/ha) was 100, the “Post-emerge Herbicidal Activity, phytotoxicity rating ECHCG” value ([7]; Rate 250 g ai/ha) was 100 and the “Post-emerge Herbicidal Activity, phytotoxicity rating CHEAL” value ([8]; Rate 63 g ai/ha) was 100. For the same molecule, the “Post-emerge Herbicidal Activity, phytotoxicity rating CHEAL” value ([8]; Rate 250 g ai/ha) was 100, the “Post-emerge Herbicidal Activity, phytotoxicity rating IPOHE” value ([9]; Rate 63 g ai/ha) was 20 and the “Post-emerge Herbicidal Activity, phytotoxicity rating IPOHE” value ([9]; Rate 250 g ai/ha) was 50. For the same molecule, the “Post-emerge Herbicidal Activity, phytotoxicity rating ABUTH” value ([10]; Rate 63 g ai/ha) was 99, the “Post-emerge Herbicidal Activity, phytotoxicity rating ABUTH” value ([10]; Rate 250 g ai/ha) was 100 and the “Post-emerge Herbicidal Activity, phytotoxicity rating SETVI” value ([11]; Rate 63 g ai/ha) was 95. The “Post-emerge Herbicidal Activity, phytotoxicity rating SETVI” value ([11]; Rate 250 g ai/ha) was 100, the “Post-emerge Herbicidal Activity, phytotoxicity rating SORHA” value ([12]; Rate 63 g ai/ha) was 30 and the “Post-emerge Herbicidal Activity, phytotoxicity rating SORHA” value ([12]; Rate 250 g ai/ha) was 40. For the same molecule, the “Post-emerge phytotoxicity rating RICE (crop damage)” value ([13]; Rate 63 g ai/ha) was 90, the “Post-emerge phytotoxicity rating RICE (crop damage)” value ([13]; Rate 250 g ai/ha) was 100 and the “Post-emerge phytotoxicity rating CORN (crop damage)” value ([14]; Rate 63 g ai/ha) was 30. The “Post-emerge phytotoxicity rating CORN (crop damage)” value ([14]; Rate 250 g ai/ha) was 50, the “Pre-emerge herbicidal activity, phytotoxicity rating AMARE” value ([15]; 63 g ai/ha) was 100 and the “Pre-emerge herbicidal activity, phytotoxicity rating AMARE” value ([15]; 250 g ai/ha) was 100. The “Pre-emerge herbicidal activity, phytotoxicity rating CASOB” value ([16]; 63 g ai/ha) was 0, the “Pre-emerge herbicidal activity, phytotoxicity rating CASOB” value ([16]; 250 g ai/ha) was 20 and the “Pre-emerge herbicidal activity, phytotoxicity rating DIGSA” value ([17]; 63 g ai/ha) was 95. The “Pre-emerge herbicidal activity, phytotoxicity rating DIGSA” value ([17]; 250 g ai/ha) was 100, the “Pre-emerge herbicidal activity, phytotoxicity rating ECHCG” value ([18]; 63 g ai/ha) was 10 and the “Pre-emerge herbicidal activity, phytotoxicity rating ECHCG” value ([18]; 250 g ai/ha) was 95. For the same molecule, the “Pre-emerge herbicidal activity, phytotoxicity rating CHEAL” value ([19]; 63 g ai/ha) was 100, the “Pre-emerge herbicidal activity, phytotoxicity rating CHEAL” value ([19]; 250 g ai/ha) was 100 and the “Pre-emerge herbicidal activity, phytotoxicity rating IPOHE” value ([20]; 63 g ai/ha) was 0. For the same molecule, the “Pre-emerge herbicidal activity, phytotoxicity rating IPOHE” value ([20]; 250 g ai/ha) was 0, the “Pre-emerge herbicidal activity, phytotoxicity rating ABUTH” value ([21]; 63 g ai/ha) was 100 and the “Pre-emerge herbicidal activity, phytotoxicity rating ABUTH” value ([21]; 250 g ai/ha) was 100. The “Pre-emerge herbicidal activity, phytotoxicity rating SETVI” value ([22]; 63 g ai/ha) was 70, the “Pre-emerge herbicidal activity, phytotoxicity rating SETVI” value ([22]; 250 g ai/ha) was 100 and the “Pre-emerge herbicidal activity, phytotoxicity rating SORHA” value ([23]; 63 g ai/ha) was 0. The “Pre-emerge herbicidal activity, phytotoxicity rating SORHA” value ([23]; 250 g ai/ha) was 60.
